# From BindingDB's records for doi:10.1016/j.bmcl.2019.04.027 (Gilead Sciences, 2019)
# Key:
# [1] = Inhibition of NS5A in HCV genotype 1b Con1 infected in human HuH7 replicon cells assessed as reduction in viral replication after 3 days by luciferase reporter gene assay
# [2] = Inhibition of NS5A in HCV genotype 4a ED43 infected in human HuH7 transient chimeric replicon cells assessed as reduction in viral replication after 3 days by luciferase reporter gene assay
# [3] = Inhibition of NS5A L31M mutant in HCV genotype 2a J6 (M31) infected in human HuH7 replicon cells assessed as reduction in viral replication after 3 days by luciferase reporter gene assay
# [4] = Inhibition of NS5A in HCV genotype 2a JFH1 infected in human HuH7 replicon cells assessed as reduction in viral replication after 3 days by luciferase reporter gene assay
# [5] = Inhibition of NS5A in HCV genotype 1a H77 infected in human HuH7 replicon cells assessed as reduction in viral replication after 3 days by luciferase reporter gene assay
# [6] = Inhibition of NS5A L31M mutant in patient derived HCV genotype 2b MD2b-1 infected in human HuH7 replicon cells assessed as reduction in viral replication after 3 days by luciferase reporter gene assay
# [7] = Inhibition of NS5A in HCV genotype 3a S52 infected in human HuH7 transient chimeric replicon cells assessed as reduction in viral replication after 3 days by luciferase reporter gene assay
# [8] = Inhibition of NS5A in HCV genotype 2a JFH1 (L31) infected in human HuH7 replicon cells assessed as reduction in viral replication after 3 days by luciferase reporter gene assay
# [9] = Inhibition of NS5A L31M mutant in HCV genotype 2a JFH1 infected in human HuH7 replicon cells assessed as reduction in viral replication after 3 days by luciferase reporter gene assay
# [10] = Inhibition of NS5A in HCV genotype 4a ED43 infected in human HuH7 replicon cells assessed as reduction in viral replication after 3 days by luciferase reporter gene assay
# [11] = Inhibition of NS5A in HCV genotype 2b MD2b-1 infected in human HuH7 replicon cells assessed as reduction in viral replication after 3 days by luciferase reporter gene assay
Structure (SMILES),EC50 [1] [nM],EC50 [2] [nM],EC50 [3] [nM],EC50 [4] [nM],EC50 [5] [nM],EC50 [6] [nM],EC50 [7] [nM],EC50 [8] [nM],EC50 [9] [nM],EC50 [10] [nM],EC50 [11] [nM]
COC(=O)N[C@H](C(=O)N1CCC[C@H]1c1nc2ccc3cc4c(cc3c2[nH]1)OCc1cc(-c2cnc([C@@H]3CCCN3C(=O)[C@H](NC(=O)OC)c3ccccc3)[nH]2)ccc1-4)C(C)C,0.033,0.011,0.073,0.006,0.035,0.016,0.006,,,,
COC(=O)N[C@H](C(=O)N1CCC[C@H]1c1ncc(-c2cc3c4c(c2)OCc2cc(-c5cnc([C@@H]6CCCN6C(=O)[C@@H](NC(=O)OC)C6CCC6)[nH]5)cc(c2-4)OC3)[nH]1)C1CCC1,0.02,,,,0.053,,,0.02,31.3,,
COC(=O)N[C@H](C(=O)N1CCC[C@H]1c1ncc(-c2cc3c4c(c2)OCc2cc(-c5cnc([C@@H]6CCCN6C(=O)[C@@H](NC(=O)OC)C6CCOCC6)[nH]5)cc(c2-4)OC3)[nH]1)C1CCOCC1,0.8,,0.33,,0.38,0.6,,0.074,,,
COC(=O)N[C@H](C(=O)N1CCC[C@H]1c1ncc(-c2cc3c4c(c2)COc2cc(-c5cnc([C@@H]6CCCN6C(=O)[C@@H](NC(=O)OC)C(C)C)[nH]5)cc(c2-4)CC3)[nH]1)C(C)C,0.028,,23.7,,0.065,,,0.016,,,
COC(=O)N[C@H](C(=O)N1CCC[C@H]1c1ncc(-c2cc3c4c(c2)OCc2cc(-c5cnc([C@@H]6CCCN6C(=O)[C@@H](NC(=O)OC)C6CCOCC6)[nH]5)cc(c2-4)OC3)[nH]1)C(C)C,0.172,,1.43,,0.185,,,0.014,1.33,,
COC(=O)N[C@@H](C(=O)N1CCC[C@H]1c1ncc(-c2cc3c4c(c2)OCc2cc(-c5cnc([C@@H]6CCCN6C(=O)[C@H](NC(=O)OC)c6ccccc6)[nH]5)cc(c2-4)OC3)[nH]1)c1ccccc1,0.048,,0.24,,0.093,0.022,,0.007,0.145,,
COC(=O)N[C@H](C(=O)N1CCC[C@H]1c1ncc(-c2ccc3c(c2)COc2cc4c(ccc5nc([C@@H]6CCCN6C(=O)[C@@H](NC(=O)OC)C(C)C)[nH]c54)cc2-3)[nH]1)C(C)C,0.017,0.008,1.16,,0.016,0.162,0.004,0.004,,,
COC(=O)N[C@H](C(=O)N1CCC[C@H]1c1ncc(-c2cc3c4c(c2)COc2cc(-c5cnc([C@@H]6CCCN6C(=O)[C@@H](NC(=O)OC)C(C)C)[nH]5)cc(c2-4)OC3)[nH]1)C(C)C,0.021,,,,0.087,,,0.019,9.85,,
COC(=O)NC(C(=O)N1CCC[C@H]1c1ncc(-c2cc3c4c(c2)OCc2cc(-c5cnc([C@@H]6CCCN6C(=O)[C@@H](NC(=O)OC)C(C)C)[nH]5)cc(c2-4)OC3)[nH]1)c1cccnc1 (stereo not given in full),0.58,,1.8,,0.75,1.21,,0.038,,,
COC(=O)N[C@H](C(=O)N1CCC[C@H]1c1ncc(-c2cc3c4c(c2)OCc2cc(-c5cnc([C@@H]6CCCN6C(=O)[C@H](NC(=O)OC)c6ccccc6)[nH]5)cc(c2-4)OC3)[nH]1)C1CCOCC1,0.315,,0.28,,0.32,0.057,,0.022,0.32,,
COC(=O)N[C@H](C(=O)N1CCC[C@H]1c1ncc(-c2ccc3c(c2)COc2cc4c(ccc5nc([C@@H]6CCCN6C(=O)[C@H](NC(=O)OC)c6ccccc6)[nH]c54)cc2-3)[nH]1)C(C)C,0.021,0.008,0.134,0.004,0.022,0.012,0.005,,,,
COC(=O)N[C@H](C(=O)N1C[C@@H](C)C[C@H]1c1nc2ccc3cc4c(cc3c2[nH]1)OCc1cc(-c2cnc([C@@H]3C[C@H](C)CN3C(=O)[C@H](NC(=O)OC)c3ccccc3)[nH]2)ccc1-4)C(C)C,0.03,,0.045,0.018,0.033,,0.05,,,0.063,0.027
COC(=O)N[C@H](C(=O)N1CCC[C@H]1c1ncc(-c2ccc3c(c2)COc2c-3ccc3c2ccc2nc([C@@H]4CCCN4C(=O)[C@@H](NC(=O)OC)C(C)C)[nH]c23)[nH]1)C(C)C,0.017,0.13,20.9,,0.041,32.3,0.012,0.016,,,
COC(=O)N[C@@H](C(=O)N1C[C@@H](C)C[C@H]1c1ncc(-c2cc3c4c(c2)OCc2cc(-c5cnc([C@@H]6C[C@H](C)CN6C(=O)[C@H](NC(=O)OC)c6ccccc6)[nH]5)cc(c2-4)OC3)[nH]1)c1ccccc1,0.02,0.013,0.058,0.005,0.031,0.026,0.006,,,,
COC(=O)N[C@@H](C(=O)N1[C@@H](C)CC[C@H]1c1ncc(-c2cc3c4c(c2)OCc2cc(-c5cnc([C@@H]6CC[C@H](C)N6C(=O)[C@H](NC(=O)OC)c6ccccc6)[nH]5)cc(c2-4)OC3)[nH]1)c1ccccc1,0.02,0.015,1.84,0.008,0.15,0.094,0.004,,,,
COC(=O)N[C@H](C(=O)N1[C@@H](C)CC[C@H]1c1nc2ccc3cc4c(cc3c2[nH]1)OCc1cc(-c2cnc([C@@H]3C[C@H](C)CN3C(=O)[C@H](NC(=O)OC)c3ccccc3)[nH]2)ccc1-4)C(C)C,0.005,,0.053,0.004,0.008,,0.02,,,,0.015
COC(=O)N[C@H](C(=O)N1CCC[C@H]1c1ncc(-c2ccc3c4ccc(-c5cnc([C@@H]6CCCN6C(=O)[C@@H](NC(=O)OC)C(C)C)[nH]5)cc4c4ccccc4c3c2)[nH]1)C(C)C,0.005,,,,0.092,,,0.02,6.79,,
COC(=O)N[C@H](C(=O)N1CCC[C@H]1c1ncc(-c2cc3ccc4cc(-c5cnc([C@@H]6CCCN6C(=O)[C@@H](NC(=O)OC)C(C)C)[nH]5)cc5c(=O)c(c2)c3c45)[nH]1)C(C)C,0.013,,,,0.22,,,0.073,,,
COC(=O)N[C@H](C(=O)N1CCC[C@H]1c1ncc(-c2cc3c4c(c2)CCc2cc(-c5cnc([C@@H]6CCCN6C(=O)[C@@H](NC(=O)OC)C(C)C)[nH]5)cc(c2-4)CC3)[nH]1)C(C)C,0.021,,,,0.156,,,0.131,13.3,,
COC(=O)N[C@H](C(=O)N1CCC[C@H]1c1ncc(-c2cc3c4c(ccc5cc(-c6cnc([C@@H]7CCCN7C(=O)[C@@H](NC(=O)OC)C(C)C)[nH]6)cc(c54)OC3)c2)[nH]1)C(C)C,0.022,,19.7,,0.063,10.2,,0.014,,,
CC[C@H](C)[C@H](NC(=O)OC)C(=O)N1CCC[C@H]1c1ncc(-c2cc3c4c(c2)OCc2cc(-c5cnc([C@@H]6CCCN6C(=O)[C@@H](NC(=O)OC)[C@@H](C)CC)[nH]5)cc(c2-4)OC3)[nH]1,0.019,,,,0.031,1.85,,0.009,12.1,,
COC(=O)N[C@H](C(=O)N1CCC[C@H]1c1ncc(-c2cc3c4c(c2)OCc2cc(-c5cnc([C@@H]6CCCN6C(=O)[C@@H](NC(=O)OC)C6CCCC6)[nH]5)cc(c2-4)OC3)[nH]1)C1CCCC1,0.022,,,,0.055,,,0.022,> 44,,
COC(=O)N[C@H](C(=O)N1CCC[C@H]1c1ncc(-c2cc3c4c(c2)OCc2cc(-c5cnc([C@@H]6CCCN6C(=O)[C@@H](NC(=O)OC)[C@@H](C)OC)[nH]5)cc(c2-4)OC3)[nH]1)C(C)C,0.079,,,,0.087,,,0.01,3.67,,
COC(=O)N[C@H](C(=O)N1CCC[C@H]1c1ncc(-c2ccc3c4ccc(-c5cnc([C@@H]6CCCN6C(=O)[C@@H](NC(=O)OC)C(C)C)[nH]5)cc4c4nccnc4c3c2)[nH]1)C(C)C,0.018,,,,0.528,,,0.223,,,
COC(=O)N[C@H](C(=O)N1CCC[C@H]1c1ncc(-c2cc3c4c(c2)OCc2cc(-c5cnc([C@@H]6CCCN6C(=O)[C@H](NC(=O)OC)c6ccccc6)[nH]5)cc(c2-4)OC3)[nH]1)C(C)C,0.031,,1.82,,0.05,0.076,,0.004,0.6,,
COC(=O)N[C@H](C(=O)N1CCC[C@H]1c1ncc(-c2ccc3c4ccc(-c5cnc([C@@H]6CCCN6C(=O)[C@@H](NC(=O)OC)C(C)C)[nH]5)cc4c4nc5ccccc5nc4c3c2)[nH]1)C(C)C,0.01,,,,5.99,,,1.47,,,
